Test results taken from US20030118553A1, “Vector constructs for gene-therapy mediated radionuclide therapy of undifferentiated and medullary thyroid carcinomas and non-thyroidal tumours and metastases mediated thereof” (priority 2000, published 2003).
Like-named read-outs stand apart in the source and are kept apart here.

Assays:
[1] = test system: stably transfected tumor cell lines (K1-NIS, SW480-NIS); experiment: At-211 transport in vitro: Na+ dependency and perchlorate inhibition; assay type: cell-based
Text: FIG. 6A depicts the dependency upon Na^+ of the At-211 transport in vitro in stably transfected tumor cell lines (K1-NIS, SW480-NIS), wherein NaCl has been iso-osmotically replaced by choline chloride.

[2] = test system: tumor cell lines stably transfected with the NIS gene (K1, B-CPAP, 8505-C, SW480, DBTRG); experiment: In vitro radionuclide uptake in tumor cell lines stably transfected with the NIS gene; assay type: cell-based; conditions: for radionuclide uptake in control cells: corresponding control cells, not NIS-transfected; for radionuclide uptake in tumor cell lines transfected with NIS: stably transfected K1, B-CPAP, 8505-C, SW480, DBTRG
Text: FIG. 5A depicts in vitro results of the radionuclide uptake of I-125, Tc-99m-pertechnetate, and At-211 in tumor cell lines stably transfected with the NIS gene as compared to the corresponding control cells: K1 papillary thyroid carcinoma ECACC #92030501, B-CPAP papillary thyroid carcinoma DSMZ #ACC273, 8505-C anaplastic thyroid carcinoma DSMZ #ACC219, SW480 colon carcinoma DSMZ #ACC313, DBTRG glioblastoma DSMZ #ACC359.

[3] = test system: transiently transfected tumor cell lines; experiment: I-125 uptake in transiently NIS-transfected tumor cell lines; assay type: cell-based; conditions: also follicular thyroid carcinoma, HepG2, LN-Cap, A498, SK-Mel30, CCF-STTG1, TT
Text: In FIG. 5B the uptake of I-125 is additionally shown depending on a perchlorate blockage in transiently transfected tumor cell lines. […] The differences in the iodide uptake rates in different cell lines transfected with NIS are caused by the variable transfection efficiency of the distinct cell lines with the method used.

[4] = test system: anaplastic thyroid cells transfected with NIS cDNA; conditions: NIS-transfected tumor cells implanted into rats; cited from earlier work
[5] = test system: tumor cells of a thyroid carcinoma cell line (K1) transfected with hNIS
Method: After a tumor growth for 3 weeks scintigraphic pictures were taken ventrally by means of scintiscanning (gamma camera ZLC370, Siemens) 3 and 24 h following the injection of 2 MBq I-123, 10 MBq Tc-99m-pertechnetate and 0.4 MBq At-211 (RVL=right-ventral-left).
The cDNAs of the therapeutic genes are amplified from human thyreocyte mRNA after reverse transcription by subsequent PCR with gene-specific primers, and the fragments thus obtained are subcloned in a cloning vector (e.g., pCRblunt, Invitrogen) in E. coli (K12 derivative). For this purpose, overlapping cDNA segments of the single genes are used, the fragments allowing the generation of full-length cDNAs due to their common restriction enzyme cleavage sites. The cDNAs are cloned into a vector for constitutive expression in mammalian cells (e.g., in pCIneo under control of the CMV promoter, Promega). The expression vectors with integrated cDNA (FIG. 7A, example) are used for transient transfection of different tumor cell lines (Fugen6, Roche) and for the generation of stably transfected cell lines by antibiotic selection (e.g., G418 for pCIneo). Radionuclide uptake measurements ([I-125], [At-211], [Tc-99m], [Re-188]) with cell cultures (FIGS. 5 and 6) are performed according to the method of Weiss et al. 1984. To establish an animal model stably transfected tumor cell lines and the corresponding control cells, respectively, are subcutaneously injected into nude NMRI mice (nu/nu). After tumor growth in the course of 3-4 weeks and application of different radionuclides (i. a., [I-123], [At-211], [Tc-99m]) sequential scintiscans are taken with a gamma camera and organ distribution over region of interest (ROI) analyses determined (FIG. 4).

[6] = scintigraphically, K1-NIS tumor, NMRI nude mouse, compared to muscle tissue
[7] = scintiscans 3 and 24 h after injection, K1-wt control tumor not shown

SMILES: [O-][Cl+3]([O-])([O-])O [perchlorate]
- inhibition of the astate transport ([1]; small perchlorate concentrations): clear inhibition

SMILES: [125IH] [I-125]
- radionuclide uptake in control cells [2]: no uptake
- radionuclide uptake in tumor cell lines transfected with NIS [2]: highly significant uptake
- iodide uptake in transiently transfected tumor cell lines [3]: significant iodide uptake

SMILES: [131IH] [I-131]
- maximum level after [4]: 90 min

SMILES: [O]=[99Tc](=[O])(=[O])[O-] [Tc-99m-pertechnetate]
- higher uptake in the NIS tumor as compared to muscle tissue [5, 6]: 15 fold
- enrichment of the tracer in the tumor transfected with NIS [5, 7]: significant enrichment
- radionuclide uptake in control cells [2]: no uptake
- radionuclide uptake in tumor cell lines transfected with NIS [2]: highly significant uptake

SMILES: [At] [At-211]
- enrichment of the tracer in the tumor transfected with NIS ([5]; mouse, in vivo): significant enrichment
- higher uptake in the NIS tumor as compared to muscle tissue ([5]; mouse, in vivo): 10 fold
- radionuclide uptake in control cells [2]: no uptake
- radionuclide uptake in tumor cell lines transfected with NIS [2]: highly significant uptake
- dependency upon Na+ of the transport ([1]; NaCl iso-osmotically replaced by choline chloride, K1-NIS, SW480-NIS): clear-cut dependency upon Na^+

SMILES: [123IH] [I-123]
- higher uptake in the NIS tumor as compared to muscle tissue [5, 6]: 60 fold
- enrichment of the tracer in the tumor transfected with NIS [5, 7]: significant enrichment
